Laboratory results taken from PMC10935965, “An odorant receptor mediates the avoidance of Plutella xylostella against parasitoid” (BMC Biology, 2024).
One block for each compound: values may come before it.

Key:
PxylOR16/PxylOrco [1] = target: T1, PxylOR16/PxylOrco (Plutella xylostella, UniProt V9SFT8); experiment: two-electrode voltage clamp, Xenopus oocytes; type: cell-based; settings: agonist, co-expressed with PxylOrco, holding potential -80 mV, Ringer's buffer
T1 construct: no tag stated; with Odorant receptor coreceptor
T1 sequence (V9SFT8 1-405): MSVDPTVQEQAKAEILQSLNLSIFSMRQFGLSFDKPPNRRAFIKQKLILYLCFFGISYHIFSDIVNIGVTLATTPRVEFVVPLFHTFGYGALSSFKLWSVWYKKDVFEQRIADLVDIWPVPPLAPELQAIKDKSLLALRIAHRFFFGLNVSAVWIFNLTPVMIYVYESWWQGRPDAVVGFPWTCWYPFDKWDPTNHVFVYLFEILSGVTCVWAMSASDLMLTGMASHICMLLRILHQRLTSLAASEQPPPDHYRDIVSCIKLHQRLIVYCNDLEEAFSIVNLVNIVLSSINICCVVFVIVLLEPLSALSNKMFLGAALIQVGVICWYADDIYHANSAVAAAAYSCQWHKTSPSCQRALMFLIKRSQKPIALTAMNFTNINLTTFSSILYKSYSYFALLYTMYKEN
T1 sequence (D0EZE1 1-471 partner): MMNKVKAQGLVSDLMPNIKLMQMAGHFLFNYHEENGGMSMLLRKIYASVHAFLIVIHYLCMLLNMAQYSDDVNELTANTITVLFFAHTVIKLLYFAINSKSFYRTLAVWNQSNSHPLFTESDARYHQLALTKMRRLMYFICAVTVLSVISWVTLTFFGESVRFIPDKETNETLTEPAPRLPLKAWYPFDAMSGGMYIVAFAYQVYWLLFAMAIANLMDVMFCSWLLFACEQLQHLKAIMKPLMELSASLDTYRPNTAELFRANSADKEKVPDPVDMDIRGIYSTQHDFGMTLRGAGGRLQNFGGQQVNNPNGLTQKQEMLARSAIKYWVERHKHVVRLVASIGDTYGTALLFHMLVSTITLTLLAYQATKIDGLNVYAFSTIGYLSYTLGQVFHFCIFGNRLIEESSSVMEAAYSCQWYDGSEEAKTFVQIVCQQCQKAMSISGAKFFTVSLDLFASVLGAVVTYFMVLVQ

PxylOR16/PxylOrco [2] = target: T1, PxylOR16/PxylOrco; experiment: two-electrode voltage clamp, Xenopus oocytes; type: cell-based

SMILES: CCCCCCCO [1-heptanol]
inward current response at 10^-4 M (PxylOR16/PxylOrco [1]): they also responded weakly to two other volatiles (octyl acetate and 1-heptanol)

EC50 (PxylOR16/PxylOrco [2]): 17.6 µM
SMILES: CCCCCCC=O [heptanal]

SMILES: CCCCCCCCOC(C)=O [octyl acetate]
inward current response at 10^-4 M (PxylOR16/PxylOrco [1]; weak agonist, 10^-4 M): they also responded weakly to two other volatiles (octyl acetate and 1-heptanol)
